Values joined by “and” are separate entries in the source; they are usually repeats but may differ in a detail not shown here. Equal entries are not always repeated. Marks after values point to notes of the source that are not given here.
Test system: pES cells of the M215-3 strain
Assay: Directed neural differentiation of pES cells (two-stage induction), immunocytochemical staining for neural biomarkers
Assay type: cell-based, porcine
Protocol: The pES cells of the M215-3 strain derived from the pre-implantation blastocysts of Taiwan Livestock Research Institute Black Pig No. 1 (a topcrossing breed established from Taoyuan and Duroc pigs) were maintained in ES-cell culture medium (ESM) consisting of Dulbecco's modified eagle medium (DMEM, high glucose and no pyruvate, Invitrogen, Grand Island, N.Y., USA) supplemented with 1 mM L-glutamine (Sigma-Aldrich, St. Louis, Mo., USA), 0.1 mM β-2-mercaptoethanol (Sigma-Aldrich), […] MEM non-essential amino acids (Sigma-Aldrich), 0.03 mM adenosine (Sigma-Aldrich), 0.03 mM guanosine (Sigma-Aldrich), 0.03 mM cytidine (Sigma-Aldrich), 0.03 mM uridine (Sigma-Aldrich), 0.01 mM thymidine (Sigma-Aldrich), antibiotics (50 units/ml penicillin G and 50 μg/ml streptomycin sulfate, Invitrogen) and 16% fetal bovine serum (FBS, Invitrogen) as described previously (Chen et al., 1991, J. Chin. Soc. Anim. Sci. 20: 326-339). Briefly, the pluripotent pES cells were propagated on a feeder layer of mitomycin C (Sigma-Aldrich) inactivated STO cells (mouse embryonic fibroblasts, CRL-1503, USA) in gelatin-coated Multidish 4 Wells® (Nunc 176740, Roskilde, Denmark) in ESM at 39° C. with an atmosphere of 5% CO2 in air. For the maintenance of undifferentiation, pES colonies were regulatory subcultured with 0.25% trypsin-0.02 mM EDTA (Invitrogen) and re-plated onto fresh STO feeder layers every 5 to 7 days.
Confluent pES cells were trypsinized and subjected to a two-stage in vitro induction protocol for neural differentiation. They were firstly taken into a suspension culture in an Easy Flask® (NUNC 169900, Roskilde, Denmark) for a 12-day period of neural induction. Neural induction is initiated by plating undifferentiated pES cells as single-cell suspension at a number of 1×10^5 cells totally in ESM medium withdrawing FBS and containing 1 μM retinoic acid (RA, Sigma-Aldrich), 200 ng/ml sonic hedgehog (SHH, R&D systems, Minneapolis, Minn., USA) and 100 ng/ml fibroblast growth factor (FGF, Sigma-Aldrich) as described by Barberi et al. (Nat. Biotechnol. 2003. 21: 1200-1207). Five combined treatments of neurogenic stimulators for neural induction were applied: (1) RA, (2) RA+SHH, (3) RA+FGF, (4) SHH+FGF, (5) RA+SHH+FGF. After 12 days of induction, the pES cell-derived neural cells were plated onto gelatin-coated 4-well dishes in high-density (2×10^4 cells/ml) or low-density (5×10^3 cells/ml). These cells were then cultured in DMEM/F12 medium (Sigma-Aldrich) supplemented with 10% FBS, 20 ng/ml human recombinant epidermal growth factor (hrEGF, Invitrogen), 20 ng/ml human recombinant basic fibroblast growth factor (hrbFGF, Invitrogen), and 1:100 N2 (Invitrogen), and allowed for the propagation of neural precursor cells (Pan et al., 2005 Biochem. Biophys. Res. Commun. 327: 548-556). After plating onto the 4-well dish, the induced pES cells were treated with trypsin/EDTA and collected at days 2, 4, 6, 8, 10, and 12, respectively, to analyze the neural-related development by immunocytochemical staining.
Cells for immunocytochemical analysis were fixed in 10% formalin at room temperature for 30 minutes. The cells were washed with phosphate buffered saline (PBS, Sigma-Aldrich), then incubated with 0.3% Triton X-100 (Sigma-Aldrich) for 10 minutes, 3% H2O2 (Sigma-Aldrich) for 5 minutes and incubated in blocking buffer (5% FBS) at room temperature for 2 hours. After being washed with PBS, the cells were incubated overnight with appropriate dilution of primary antibody, or combination of antibodies at 4° C. (Li et al., 2005 Nat. Biotechnol. 2005. 23: 215-221). Subsequently, cells were incubated with secondary antibody of Fluorescein (FITC)-conjugated AffiniPure Goat Anti-Rabbit IgG, Goat Anti-Mouse IgG, IgM (1:200, Jackson Immunoresearch Laboratories, West Baltimore Pike, Pa., USA) for a minimum of 2 hours, followed by washing in PBS. […]

[1] = day 6 after the treatments, mean±S.D.

SMILES: CC1=C(/C=C/C(C)=C/C=C/C(C)=C/C(=O)O)C(C)(C)CCC1 [RA, retinoic acid]
- percentage of pES cell-derived neural lineages expressing nestin (D2 after replating, 12-day induction, 1 μM RA, 200 ng/ml SHH, 100 ng/ml FGF, mean±S.D.): 86.2 ± 7.9^ab %
- percentage of pES cell-derived neural lineages expressing A2B5 (D2 after replating, mean±S.D.): 83.7 ± 12.6%
- percentage of pES cell-derived neural lineages expressing ChAT (D2 after replating, mean±S.D.): 87.1 ± 5.6^ab %
- percentage of pES cell-derived neural lineages expressing GFAP (D2 after replating, mean±S.D.): 9.8 ± 3.8%
- percentage of pES cell-derived neural lineages expressing NFL (D2 after replating, mean±S.D.): 93.9 ± 3.9^a %
- percentage of pES cell-derived neural lineages expressing TH (D2 after replating, mean±S.D.): 7.8 ± 2.5%
- percentage of pES cell-derived neural lineages expressing A2B5 (D4 after replating, mean±S.D.): 86.6 ± 3.3%
- percentage of pES cell-derived neural lineages expressing ChAT (D4 after replating, mean±S.D.): 85.8 ± 3.2^bc %
- percentage of pES cell-derived neural lineages expressing GFAP (D4 after replating, mean±S.D.): 7.6 ± 4.2%
- percentage of pES cell-derived neural lineages expressing NFL (D4 after replating, mean±S.D.): 90.3 ± 4.8^ab %
- percentage of pES cell-derived neural lineages expressing TH (D4 after replating, mean±S.D.): 8.0 ± 4.9%
- percentage of pES cell-derived neural lineages expressing nestin (D4 after replating, mean±S.D.): 90.5 ± 4.7^a %
- percentage of pES cell-derived neural lineages expressing A2B5 (D6 after replating, mean±S.D.): 87.6 ± 7.4% and 87.6 ± 7.4^a %
- percentage of pES cell-derived neural lineages expressing ChAT (D6 after replating, mean±S.D.): 91.8 ± 8.3^a %
- percentage of pES cell-derived neural lineages expressing GFAP (D6 after replating, mean±S.D.): 7.7±3.6% and 7.7 ± 3.6^d %
- percentage of pES cell-derived neural lineages expressing NFL (D6 after replating, mean±S.D.): 91.8 ± 6.0^a %
- percentage of pES cell-derived neural lineages expressing TH (D6 after replating, mean±S.D.): 8.7±1.7% and 8.7 ± 1.7^b %
- percentage of pES cell-derived neural lineages expressing A2B5 (D8 after replating, mean±S.D.): 86.9 ± 9.3%
- percentage of pES cell-derived neural lineages expressing ChAT (D8 after replating, mean±S.D.): 86.9 ± 4.4^ab %
- percentage of pES cell-derived neural lineages expressing GFAP (D8 after replating, mean±S.D.): 7.3 ± 1.5%
- percentage of pES cell-derived neural lineages expressing NFL (D8 after replating, mean±S.D.): 85.8 ± 4.2^b %
- percentage of pES cell-derived neural lineages expressing TH (D8 after replating, mean±S.D.): 8.5 ± 2.7%
- percentage of pES cell-derived neural lineages expressing nestin (D8 after replating, mean±S.D.): 81.2 ± 8.0^bc %
- percentage of pES cell-derived neural lineages expressing A2B5 (D10 after replating, mean±S.D.): 86.3 ± 1.9%
- percentage of pES cell-derived neural lineages expressing ChAT (D10 after replating, mean±S.D.): 89.9 ± 7.2^ab %
- percentage of pES cell-derived neural lineages expressing GFAP (D10 after replating, mean±S.D.): 7.7 ± 4.5%
- percentage of pES cell-derived neural lineages expressing NFL (D10 after replating, mean±S.D.): 84.4 ± 7.7^b %
- percentage of pES cell-derived neural lineages expressing TH (D10 after replating, mean±S.D.): 8.5 ± 4.2%
- percentage of pES cell-derived neural lineages expressing nestin (D10 after replating, mean±S.D.): 82.4 ± 11.4^bc %
- percentage of pES cell-derived neural lineages expressing A2B5 (D12 after replating, mean±S.D.): 84.8 ± 5.2%
- percentage of pES cell-derived neural lineages expressing ChAT (D12 after replating, mean±S.D.): 80.3 ± 6.0^c %
- percentage of pES cell-derived neural lineages expressing GFAP (D12 after replating, mean±S.D.): 7.6 ± 2.3%
- percentage of pES cell-derived neural lineages expressing NFL (D12 after replating, mean±S.D.): 74.4 ± 12.3^c %
- percentage of pES cell-derived neural lineages expressing TH (D12 after replating, mean±S.D.): 8.4 ± 3.5%
- percentage of pES cell-derived neural lineages expressing nestin (D12 after replating, mean±S.D.): 77.9 ± 6.6^c %
- percentage of pES cell-derived neural lineages expressing CNPase [1]: 89.8 ± 4.7^ab %
- percentage of pES cell-derived neural lineages expressing GABA [1]: 80.5±9.2% and 80.5 ± 9.2^a %
- percentage of pES cell-derived neural lineages expressing MAP2 [1]: 86.1 ± 3.2^a %
- percentage of pES cell-derived neural lineages expressing O4 [1]: 90.7 ± 5.9%
- percentage of pES cell-derived neural lineages expressing S100 [1]: 71.4 ± 12.5^a %
- percentage of differentiated cells GFAP positive (during the 12-day post-treatment period (Table 3)): Less than 10%
- percentage of cells expressing TH (during the culture, day 2 to day 12 (text summary of Table 5)): below 10%
- ratio of cells expressing A2B5 (during the following culture, day 2 to day 12 (text summary of Table 4)): above 80%

From patent US20090253157A1, “METHOD OF DIRECTED DIFFERENTIATION OF PORCINE EMBRYONIC STEM CELLS AND USING THE SAID CELLS IN DRUG SCREENING” (Livestock Research Institute, Council of Agriculture, …, priority 2008, published 2009)
